The compounds below were run against CFTR (Homo sapiens, UniProt P13569) (assay: T84 assay (FLIPR membrane potential)).
Type: cell-based
Set-up: Human colonic T84 cells are acquired from the European Collection of Cell Cultures (ECACC); host or cells: T84 human colonic cells
Protocol: (§1) For example, Human colonic T84 cells can be acquired from the European Collection of Cell Cultures (ECACC) and grown in standard culture conditions as described by the supplier. On the day before assay 25,000 T84 cells per well are plated into standard black walled, clear bottom 384-well assay plates in standard growth medium consisting of DMEM:F12 with 10% FBS and incubated overnight. On the day of the assay the plates are washed using a standard assay buffer (HBSS with 10 mM Hepes) and incubated for 15 minutes in serum free cell culture medium before the addition of a commercially available membrane potential sensitive fluorescent dye (FLIPR Red membrane potential dye, Molecular Devices Corporation). T84 cells are incubated with the FLIPR Red membrane potential dye for 45 minutes in the presence and absence of test compound before being transferred to a commercially available fluorescence imaging plate reader (FLIPR384, Molecular Devices Corporation). Fluorescence levels are monitored continuously every second for 150 seconds; after an initial 10 second baseline, CFTR channel activity is stimulated through the addition of 10 μM forskolin in the presence of 100 μM of the phosphodiesterase inhibitor iso-butyl-methylxanthine (IBMX). Addition of the forskolin leads to the activation of intracellular adenylyl cylase 1, elevating cAMP levels and results in the phosphorylation and opening of CFTR anion channels. CFTR channel opening causes chloride ion efflux and subsequent depolarization of the cells, which is measured by an increase in fluorescence. CFTR inhibitor compounds prevent cell depolarization and the associated increase in fluorescence.
as §1, with “Human colonic” for “For example, Human colonic”, “T84 cells are acquired from” for “T84 cells can be acquired from”, “(ECACC) and are grown in” for “(ECACC) and grown in”, “with 10 Mm Hepes) and” for “with 10 mM Hepes) and”, “1, elevating Camp levels and” for “1, elevating cAMP levels and”

Sequence of CFTR (P13569 whole entry): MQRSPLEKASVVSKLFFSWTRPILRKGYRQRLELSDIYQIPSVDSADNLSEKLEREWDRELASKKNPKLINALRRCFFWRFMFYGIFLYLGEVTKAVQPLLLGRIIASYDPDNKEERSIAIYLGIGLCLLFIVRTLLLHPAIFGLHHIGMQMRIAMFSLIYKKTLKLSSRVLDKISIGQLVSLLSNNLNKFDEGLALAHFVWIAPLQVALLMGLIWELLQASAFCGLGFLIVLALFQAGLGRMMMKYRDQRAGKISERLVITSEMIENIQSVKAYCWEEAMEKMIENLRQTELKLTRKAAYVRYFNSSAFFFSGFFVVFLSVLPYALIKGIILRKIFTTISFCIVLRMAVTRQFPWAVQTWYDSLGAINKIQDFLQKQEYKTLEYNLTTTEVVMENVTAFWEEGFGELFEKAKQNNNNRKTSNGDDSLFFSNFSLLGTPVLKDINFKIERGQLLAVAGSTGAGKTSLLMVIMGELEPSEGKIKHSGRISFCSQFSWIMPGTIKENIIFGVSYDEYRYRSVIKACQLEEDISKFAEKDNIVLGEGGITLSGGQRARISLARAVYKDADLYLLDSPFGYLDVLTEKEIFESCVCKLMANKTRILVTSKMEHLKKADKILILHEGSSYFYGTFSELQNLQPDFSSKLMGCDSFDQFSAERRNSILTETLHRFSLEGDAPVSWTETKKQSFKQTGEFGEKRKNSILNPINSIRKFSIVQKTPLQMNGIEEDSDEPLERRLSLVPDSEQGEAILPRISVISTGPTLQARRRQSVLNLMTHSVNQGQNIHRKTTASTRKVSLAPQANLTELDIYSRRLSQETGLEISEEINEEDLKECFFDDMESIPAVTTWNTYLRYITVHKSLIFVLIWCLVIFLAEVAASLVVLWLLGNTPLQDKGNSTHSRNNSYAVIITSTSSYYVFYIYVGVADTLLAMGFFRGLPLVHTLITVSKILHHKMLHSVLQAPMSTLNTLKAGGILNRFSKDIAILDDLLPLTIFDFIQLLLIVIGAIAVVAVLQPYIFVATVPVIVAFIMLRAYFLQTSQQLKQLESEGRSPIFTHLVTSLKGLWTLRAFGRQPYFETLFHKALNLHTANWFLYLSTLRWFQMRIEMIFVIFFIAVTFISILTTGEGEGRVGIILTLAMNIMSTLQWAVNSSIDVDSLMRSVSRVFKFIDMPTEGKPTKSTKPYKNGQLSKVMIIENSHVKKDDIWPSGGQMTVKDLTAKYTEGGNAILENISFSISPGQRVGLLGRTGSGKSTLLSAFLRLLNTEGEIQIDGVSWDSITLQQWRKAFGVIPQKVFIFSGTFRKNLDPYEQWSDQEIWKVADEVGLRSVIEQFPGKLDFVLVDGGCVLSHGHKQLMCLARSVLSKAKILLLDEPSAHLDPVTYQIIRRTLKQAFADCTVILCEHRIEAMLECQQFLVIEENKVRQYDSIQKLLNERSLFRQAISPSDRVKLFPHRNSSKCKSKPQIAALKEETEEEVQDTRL

SMILES	IC50 [µM]
O=C(NCc1ccc(Oc2ccccc2)cc1)c1nnc(-c2cccc(NS(=O)(=O)C(F)(F)F)c2)o1 [Compound 7, N-(4-phenoxybenzyl)-5-(3-(trifluoromethylsulfonamido)phenyl)-1,3,4-oxadiazole-2-carboxamide]	15.8
O=C(NCc1cccc(Oc2ccccc2)c1)c1nnc(-c2cc(Cl)c(O)c(Cl)c2)o1 [Compound 14, 5-(3,5-dichloro-4-hydroxyphenyl)-N-(3-phenoxybenzyl)-1,3,4-oxadiazole-2-carboxamide]	5.37
O=C(NCc1cccc(OCc2ccccc2)c1)c1nnc(-c2cc(Cl)c(O)c(Cl)c2)o1 [Compound 16, N-(3-(benzyloxy)benzyl)-5-(3,5-dichloro-4-hydroxyphenyl)-1,3,4-oxadiazole-2-carboxamide]	7.53
CC(NC(=O)c1nnc(-c2cc(Cl)c(O)c(Cl)c2)o1)c1ccc(Cl)cc1 (stereo not shown) [Compound 26, N-(1-(4-chlorophenyl)ethyl)-5-(3,5-dichloro-4-hydroxyphenyl)-1,3,4-oxadiazole-2-carboxamide]	27.8
O=C(NC(c1ccccc1)c1ccccc1)c1nnc(-c2cc(Cl)c(O)c(Cl)c2)o1 [Compound 6, N-benzhydryl-5-(3,5-dichloro-4-hydroxyphenyl)-1,3,4-oxadiazole-2-carboxamide]	14.6
CC(C)(C)c1ccc(CNC(=O)c2nnc(-c3cccc(NS(=O)(=O)C(F)(F)F)c3)o2)cc1 [Compound 9, N-(4-tert-butylbenzyl)-5-(3-(trifluoromethylsulfonamido)phenyl)-1,3,4-oxadiazole-2-carboxamide]	19
O=C(NCc1cccc(OC(F)(F)F)c1)c1nnc(-c2cc(Cl)c(O)c(Cl)c2)o1 [Compound 1, 5-(3,5-dichloro-4-hydroxyphenyl)-N-(3-(trifluoromethoxy)benzyl)-1,3,4-oxadiazole-2-carboxamide]	17.4
O=C(NCc1ccc(Oc2ccccc2)cc1)c1nnc(-c2cc(Cl)c(O)c(Cl)c2)o1 [Compound 2, 5-(3,5-Dichloro-4-hydroxyphenyl)-N-(4-phenoxybenzyl)-1,3,4-oxadiazole-2-carboxamide]	3.95
CN(Cc1ccc(Cl)c(Cl)c1)C(=O)c1nnc(-c2ccc(NS(=O)(=O)C(F)(F)F)cc2)o1 [Compound 17, N-(3,4-dichlorobenzyl)-N-methyl-5-(4-(trifluoromethylsulfonamido)phenyl)-1,3,4-oxadiazole-2-carboxamide]	9.62
CC(C)(C)c1ccc(CNC(=O)c2nnc(-c3cc(Cl)c(O)c(Cl)c3)o2)cc1 [Compound 5, N-(4-tert-butylbenzyl)-5-(3,5-dichloro-4-hydroxyphenyl)-1,3,4-oxadiazole-2-carboxamide]	7.38
O=C(NCc1cc(F)cc(C(F)(F)F)c1)c1nnc(-c2cc(Cl)c(O)c(Cl)c2)o1 [Compound 21, 5-(3,5-dichloro-4-hydroxyphenyl)-N-(3-fluoro-5-(trifluoromethyl)benzyl)-1,3,4-oxadiazole-2-carboxamide]	13.6
O=C(c1nnc(-c2cccc(NS(=O)(=O)C(F)(F)F)c2)o1)N1CCC(Cc2ccccc2)CC1 [Compound 8, N-(3-(5-(4-benzylpiperidine-1-carbonyl)-1,3,4-oxadiazol-2-yl)phenyl)-1,1,1-trifluoromethanesulfonamide]	13.3
O=C(NCc1ccc(OCc2ccccc2)cc1)c1nnc(-c2cc(Cl)c(O)c(Cl)c2)o1 [Compound 18, N-(4-(benzyloxy)benzyl)-5-(3,5-dichloro-4-hydroxyphenyl)-1,3,4-oxadiazole-2-carboxamide]	9.86

More lines, in order of falling IC50, values ahead:

IC50 [µM]	SMILES
20.6	O=C(c1nnc(-c2ccc(NS(=O)(=O)C(F)(F)F)cc2)o1)N1CCN(c2cccc(C(F)(F)F)c2)CC1 [Compound 25, 1,1,1-trifluoro-N-(4-(5-(4-(3-(trifluoromethyl)phenyl)piperazine-1-carbonyl)-1,3,4-oxadiazol-2-yl)phenyl)methanesulfonamide]
19.7	O=C(NCc1ccc(F)c(C(F)(F)F)c1)c1nnc(-c2cc(Cl)c(O)c(Cl)c2)o1 [Compound 24, 5-(3,5-dichloro-4-hydroxyphenyl)-N-(4-fluoro-3-(trifluoromethyl)benzyl)-1,3,4-oxadiazole-2-carboxamide]
18.8	O=C(NCc1ccc(Oc2ccccc2)cc1)c1nnc(-c2ccc(NS(=O)(=O)C(F)(F)F)cc2)o1 [Compound 23, N-(4-phenoxybenzyl)-5-(4-(trifluoromethylsulfonamido)phenyl)-1,3,4-oxadiazole-2-carboxamide]
14.3	O=C(NCc1ccc(OC(F)(F)F)cc1)c1nnc(-c2cc(Cl)c(O)c(Cl)c2)o1 [Compound 22, 5-(3,5-dichloro-4-hydroxyphenyl)-N-(4-(trifluoromethoxy)benzyl)-1,3,4-oxadiazole-2-carboxamide]
13.4	O=C(c1nnc(-c2cccc(NS(=O)(=O)C(F)(F)F)c2)o1)N1CCN(c2cccc(C(F)(F)F)c2)CC1 [Compound 11, 1,1,1-trifluoro-N-(3-(5-(4-(3-(trifluoromethyl)phenyl)piperazine-1-carbonyl)-1,3,4-oxadiazol-2-yl)phenyl)methanesulfonamide]
12.7	CC(C)(C)c1ccc(CNC(=O)c2nnc(-c3ccc(NS(=O)(=O)C(F)(F)F)cc3)o2)cc1 [Compound 20, N-(4-tert-butylbenzyl)-5-(4-(trifluoromethylsulfonamido)phenyl)-1,3,4-oxadiazole-2-carboxamide]
11.8	CN(Cc1ccc(Cl)c(Cl)c1)C(=O)c1nnc(-c2cccc(NS(=O)(=O)C(F)(F)F)c2)o1 [Compound 10, N-(3,4-dichlorobenzyl)-N-methyl-5-(3-(trifluoromethylsulfonamido)phenyl)-1,3,4-oxadiazole-2-carboxamide]
9.89	O=C(NCc1cccc(-c2ccccc2)c1)c1nnc(-c2cc(Cl)c(O)c(Cl)c2)o1 [Compound 19, N-(biphenyl-3-ylmethyl)-5-(3,5-dichloro-4-hydroxyphenyl)-1,3,4-oxadiazole-2-carboxamide]
9.5	O=C(c1nnc(-c2cc(Cl)c(O)c(Cl)c2)o1)N1CCC(Cc2ccccc2)CC1 [Compound 3, (4-benzylpiperidin-1-yl)(5-(3,5-dichloro-4-hydroxyphenyl)-1,3,4-oxadiazol-2-yl)methanone]
5.77	O=C(NCC(c1ccccc1)c1ccccc1)c1nnc(-c2cc(Cl)c(O)c(Cl)c2)o1 [Compound 15, 5-(3,5-dichloro-4-hydroxyphenyl)-N-(2,2-diphenylethyl)-1,3,4-oxadiazole-2-carboxamide]
3.26	CN(Cc1cccc(Oc2ccccc2)c1)C(=O)c1nnc(-c2cc(Cl)c(O)c(Cl)c2)o1 [Compound 13, 5-(3,5-dichloro-4-hydroxyphenyl)-N-methyl-N-(3-phenoxybenzyl)-1,3,4-oxadiazole-2-carboxamide]
1.88	CN(Cc1ccc(Cl)c(Cl)c1)C(=O)c1nnc(-c2cc(Cl)c(O)c(Cl)c2)o1 [Compound 12, 5-(3,5-dichloro-4-hydroxyphenyl)-N-(3,4-dichlorobenzyl)-N-methyl-1,3,4-oxadiazole-2-carboxamide]
